Experimental data reported in ChEMBL document CHEMBL1201862, “PubChem BioAssay data set” (2004).
Active and inactive are the calls of the source.

How the values were obtained:
[1] = OVCAR-3 cell viability loss – plate reader, dry powder samples, PAX8 inhibitor project, dose response (AID 743044); type: functional, cell-based
[2] = toxicity toward immortalized ovarian surface epithelium – cell-based, plate reader, dry powder samples, cytotoxicity control for PAX8 inhibitor project, dose response (AID 743045); type: functional
[3] = A2780 cell killing – plate reader, dry powder samples, cytotoxicity control, dose response (AID 743046); type: functional, cell-based
Paired box protein Pax-8 = Paired box protein Pax-8 (Homo sapiens, UniProt Q06710); assay: PAX8 transcriptional activity inhibition in RMG-I – RMG-I cells, luciferase, cherry-pick, dose response (AID 687027); type: functional, cell-based;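 note: luciferase reporter driven by Pax8 target thyroperoxidase promoter measured by SteadyGlo luminescence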
Paired box protein Pax-8, sequence (Q06710 whole entry): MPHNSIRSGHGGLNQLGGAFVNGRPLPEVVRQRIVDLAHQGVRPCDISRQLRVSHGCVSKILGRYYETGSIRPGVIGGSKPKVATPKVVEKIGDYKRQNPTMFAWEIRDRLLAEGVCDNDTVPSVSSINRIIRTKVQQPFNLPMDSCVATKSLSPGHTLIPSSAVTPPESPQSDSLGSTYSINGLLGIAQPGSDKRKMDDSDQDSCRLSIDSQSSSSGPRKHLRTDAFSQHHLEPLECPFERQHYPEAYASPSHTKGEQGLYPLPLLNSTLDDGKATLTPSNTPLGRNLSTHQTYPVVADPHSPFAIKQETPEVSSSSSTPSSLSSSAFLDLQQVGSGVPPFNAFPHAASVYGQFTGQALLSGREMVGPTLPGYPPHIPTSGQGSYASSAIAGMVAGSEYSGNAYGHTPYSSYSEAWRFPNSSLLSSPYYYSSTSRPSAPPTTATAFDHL

[4] = OVCAR8 cell viability loss – plate reader, dry powder samples, PAX8 project, dose response (AID 743197); type: functional, cell-based; details: OVCAR-8
[5] = OV-90 cell viability loss – plate reader, dry powder, SA8, PAX8 inhibitor project, dose response (AID 743149); type: functional, cell-based
[6] = inhibitors acting on PAX2 in cells – cell-based, plate reader, dry powder samples, selectivity assay for PAX8 inhibitor project, dose response (AID 743048); type: functional;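 note: HEK293 cells carrying a WT1 promoter luciferase reporter driven by expressed Pax2; potency is for inhibition of Pax2 driven reporter signal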
[7] = OVCAR4 cell viability loss – plate reader, dry powder, SA11, cytotoxicity control for PAX8 inhibitor project, dose response (AID 743150); type: functional, cell-based; details: OVCAR-4
[8] = COV434 cell viability loss – plate reader, dry powder, SA7, cytotoxicity control for PAX8 inhibitor project, dose response (AID 743145); type: functional, cell-based
[9] = PAX5 cellular inhibition readout – cell-based, plate reader, dry powder samples, selectivity assay for PAX8 inhibitor project, dose response (AID 743047); type: functional;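 note: HEK293 cells carrying a Pax5 driven CD19 promoter luciferase reporter; potency of inhibitors that lower reporter luminescence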
[10] = PAX8-dependent cell viability loss – plate reader, dry powder, dose response (AID 743049); type: functional, cell-based
[11] = Late stage assay provider results from the probe development effort to identify inhibitors of the Plasmodium falciparum M18 Aspartyl Aminopeptidase (M18AAP): radiolabel-based cell-based dose response assay to identify compounds that inhibit P. falciparum growth in RBCs, Set 2..; type: functional
[12] = growth inhibition of PfATP4-mutant resistant parasites – NITD609-resistant line, SYBR Green, dry powder, dose response (AID 1159571); type: functional, cell-based;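 note: parasites synchronized at ring stage by sorbitol before testing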
[13] = Dd2 malaria parasite growth inhibition potency – SYBR Green, dry powder samples, dose response (AID 1159566); type: functional, cell-based;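 note: potency for growth inhibition with lower SYBR green DNA signal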
[14] = growth inhibition of yeast DHODH-expressing 3D7 parasites – SYBR Green, dry powder samples, dose response (AID 1159570); type: functional, cell-based;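 note: parasite growth measured after 72 hours of compound exposure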
[15] = P. falciparum Dd2 growth inhibitors, dose response, SYBR Green, cherry-picked samples (AID 1159567); type: functional, cell-based
[16] = Dd2 parasite growth inhibition in erythrocytes – SYBR Green, dry powder samples, set 9, dose response (AID 1159568); type: functional, cell-based
[17] = toxicity to human hepatoma HepG2 cells – cell-based, cherry-picked samples, cytotoxicity control, dose response (AID 1159577); type: functional
[18] = Reduced DLD-1 viability, concentration-response, CellTiter-Glo luminescence (AID 1117352); type: functional
[19] = HCT116 cell viability decrease, GSK3B pretreatment – CellTiter-Glo, IC50, dose response (AID 1117339); type: functional; details: HCT-116
[20] = rise of 4N DNA cells, HeLa – IC50, dose response (AID 1117351); type: functional, cell-based
[21] = CellTiter-Glo luminescence survival assay, SW480 colon tumor line, concentration-response curve, half-maximal inhibitory concentration (AID 1117338); type: functional
[22] = cytotoxicity toward HT-29 cells – cell-based, CellTiter-Glo luminescence, IC50, dose response (AID 1117330); type: functional
[23] = cytotoxicity toward HCT116 cells – cell-based, CellTiter-Glo luminescence, IC50, dose response (AID 1117332); type: functional; details: HCT-116
[24] = SNU-C1 cell viability reduction, dose response, CellTiter-Glo luminescence (AID 1117323); type: functional, cell-based
[25] = RKO cell viability reduction, dose response, CellTiter-Glo luminescence (AID 1117322); type: functional
[26] = cytotoxicity toward Colo320 cells – cell-based, CellTiter-Glo luminescence, IC50, dose response (AID 1117334); type: functional; details: COLO 320
[27] = rise of 2N DNA cells, HeLa – IC50, dose response (AID 1117349); type: functional, cell-based

**Q.** For `C[C@H]1CCCCO[C@@H](CN(C)Cc2ccc(C(F)(F)F)cc2)[C@@H](C)CN([C@@H](C)CO)C(=O)c2cc(NS(=O)(=O)c3ccc(Cl)cc3)ccc2O1`, which AC50 [1] is on record?
**A.** 11 µM (active)

**Q.** What about the AC50 [2] of the same compound?
**A.** 36.4 µM (active)

**Q.** And the AC50 [3]?
**A.** 0.528 µM (active)

**Q.** What about the AC50 (Paired box protein Pax-8) of the same compound?
**A.** 4.39 µM (active)

**Q.** And the AC50 [4]?
**A.** 19.7 µM (active)

**Q.** For `N#C[C@@H]1[C@H](c2ccc(C#CC3CCCCC3)cc2)[C@H](CO)N1S(=O)(=O)c1ccccc1`, which AC50 [5] is on record?
**A.** 22.2 µM (active)

**Q.** And the AC50 [6]?
**A.** > 32 µM (inactive)

**Q.** And the AC50 [7]?
**A.** > 70 µM (inactive)

**Q.** What about the AC50 [8] of the same compound?
**A.** 36.6 µM (active)

**Q.** What about the AC50 [9] of the same compound?
**A.** 29.9 µM (active)

**Q.** And the AC50 (Paired box protein Pax-8)?
**A.** 11.1 µM (active)

**Q.** And the AC50 [10]?
**A.** 25.6 µM (active)

**Q.** For `CCOc1ccc2nccc(NCCc3ccc(OC)c(OC)c3)c2c1`, which IC50 [11] is on record?
**A.** 1.4 µM (active)

**Q.** For `Oc1ccc(CCNc2ccnc3cc(Cl)ccc23)cc1O`, which IC50 [11] is on record?
**A.** 0.62 µM (active)

**Q.** With `O=C(c1ccccc1F)N1CC(=O)N2[C@H](C1)[C@@H](c1ccc(-c3ccc(F)cc3)cc1)[C@@H]2CO` as the compound, how does the AC50 [12] read?
**A.** 1.09 µM (active)

**Q.** And the AC50 [13]?
**A.** 0.497 µM (active)

**Q.** What about the AC50 [14] of the same compound?
**A.** 1.72 µM (active)

**Q.** And the AC50 [15]?
**A.** 1.41 µM (active)

**Q.** Which AC50 [16] does the source give for `COc1ccc(S(=O)(=O)Nc2ccc3c(c2)C(=O)N([C@H](C)CO)C[C@@H](C)[C@H](CN(C)Cc2ccc(C(F)(F)F)cc2)OCCCC[C@@H](C)O3)cc1` here?
**A.** 3.69 µM (active)

**Q.** With `C[C@@H]1CN([C@@H](C)CO)S(=O)(=O)c2ccc(/C=C/c3ccccc3)cc2O[C@@H]1CN(C)C(=O)Nc1ccc(F)cc1` as the compound, how does the AC50 [17] read?
**A.** 25.5 µM (active)

**Q.** What about the AC50 [15] of the same compound?
**A.** 5.09 µM (active)

**Q.** With `C[C@H]1CCCCO[C@H](CN(C)S(=O)(=O)c2ccc(F)cc2)[C@@H](C)CN([C@@H](C)CO)C(=O)c2cc(N(C)C)ccc2O1` as the compound, how does the AC50 [16] read?
**A.** 4.91 µM (active)

**Q.** Which AC50 [17] does the source give for `CCCc1cn(CC[C@H]2CC[C@@H](NS(=O)(=O)c3ccc(-c4ccccc4)cc3)[C@H](CO)O2)nn1` here?
**A.** 14.8 µM (active)

**Q.** What about the AC50 [15] of the same compound?
**A.** 1.31 µM (active)

**Q.** For `CC[C@H]1CN2CCc3cc(OC)c(OC)cc3[C@@H]2C[C@@H]1C[C@H]1NCCc2cc(OC)c(OC)cc21` [EMETINE], which IC50 [18] is on record?
**A.** 0.0116 µM (active)

**Q.** What about the IC50 [19] of the same compound?
**A.** 0.001 µM (active)

**Q.** And the IC50 [20]?
**A.** > 10 µM (inactive)

**Q.** What about the IC50 [21] of the same compound?
**A.** 0.001 µM (active)

**Q.** What about the IC50 [22] of the same compound?
**A.** 0.0163 µM (active)

**Q.** What about the IC50 [23] of the same compound?
**A.** 0.0615 µM (active)

**Q.** And the IC50 [24]?
**A.** 0.00228 µM (active)

**Q.** And the IC50 [25]?
**A.** 0.00831 µM (active)

**Q.** What about the IC50 [26] of the same compound?
**A.** 0.0221 µM (active)

**Q.** And the IC50 [27]?
**A.** > 10 µM (inactive)
